Read-outs that look alike come from different tables or passages of the source.
Experiment: Pharmacokinetic evaluation of Oraxol in patients with MBC (weeks 1 and 4)
Format: in vivo, human
Conditions: for AUC(0-t) / Cmax / Tmax: human, in vivo, oral; for AUC(0-t): read-out: AUC (0-52) Mean
Method: Similarly, patients were readmitted to the clinic the preceding night dosing on week 4, day 1, and remained at the clinic until pharmacokinetic sampling was completed on Day 3 of that week.
Analytical determination of pharmacokinetic parameters was conducted in patients who provided at least one post‐dose blood sample. The study weeks were counted consecutively starting from week 1 for pharmacokinetic sampling. However, for week 4 pharmacokinetic sampling, a delay was permitted at the investigator's discretion to allow the relevant time to recuperate from any intolerable toxicity, if present. In the instance of treatment postponement, pharmacokinetic samples for week 4 were collected immediately after treatment resumed, regardless of whether a dose reduction were applied.
The pharmacokinetic parameters were synthesized utilizing descriptive data analysis, including mean, standard deviation, median, minimum, and maximum values. What is more, summaries of pharmacokinetic parameters included the geometric average and the coefficient of variation. Individual concentration data and corresponding area under the AUC timepoint data were tabulated in both nominal and actual sampling times for all patients. The concentration‐timepoint data (in actual times) were presented graphically for each subject.
The pharmacokinetic parameters were analyzed using logarithmic transformation, followed by statistical evaluation through analysis of variance, considering subject and treatment effects. […] This analysis allowed for the assessment of the pharmacokinetic profile of Oraxol over the course of treatment.

Row | SMILES | Tmax (0-24) Median (Study day 1) [h] | Tmax (0-24) Median (Study day 22) [h] | AUC(0-t) (Study day 1) [ng·h/mL] | Cmax (Study day 1, read-out: Cmax (0-24) Mean) [ng/mL] | Cmax (Study day 1, read-out: Cmax (24-48) Mean) [ng/mL] | Cmax (Study day 1, read-out: Cmax (48-52) Mean) [ng/mL] | Cmax (Study day 1, read-out: Cmax Mean) [ng/mL] | Tmax (Study day 1, read-out: Tmax (24-48) Median) [h] | Tmax (Study day 1, read-out: Tmax (48-52) Median) [h] | AUC(0-t) (Study day 22) [ng·h/mL] | Cmax (Study day 22, read-out: Cmax (0-24) Mean) [ng/mL] | Cmax (Study day 22, read-out: Cmax (24-48) Mean) [ng/mL] | Cmax (Study day 22, read-out: Cmax (48-52) Mean) [ng/mL] | Cmax (Study day 22, read-out: Cmax Mean) [ng/mL] | Tmax (Study day 22, read-out: Tmax (24-48) Median) [h] | Tmax (Study day 22, read-out: Tmax (48-52) Median) [h]
1 | COc1cc2c(cc1OC)CN(CCc1ccc(-n3nnc(-c4cc(OC)c(OC)cc4NC(=O)c4cc(=O)c5ccccc5o4)n3)cc1)CC2.CS(=O)(=O)O.O [HM30181A, HM30181A methanesulfonate monohydrate] | 5 | 4.5 |  |  |  |  |  |  |  |  |  |  |  |  |  | 
2 | CC(=O)O[C@H]1C(=O)[C@@]2(C)[C@H]([C@H](OC(=O)c3ccccc3)[C@]3(O)C[C@H](OC(=O)[C@H](O)[C@@H](NC(=O)c4ccccc4)c4ccccc4)C(C)=C1C3(C)C)[C@]1(OC(C)=O)CO[C@@H]1C[C@@H]2O [Paclitaxel] | 1 | 1 | 3540 | 288 | 338 | 324 | 404 | 25.5 | 49.3 | 3520 | 329 | 289 | 313 | 398 | 25 | 49

— paper PMC11831190 (MedComm, 2025)
